Data: patent US11578061B2, “Inhibitors of LRRK2 kinase” (Halia Therapeutics, Inc., priority 2021, dated 2023)
pIC50: −log10 of the molar value.

molecular target: recombinant human LRRK2 (catalytic domain only [amino acids 970-2527], GST-tagged) (Homo sapiens (Human), UniProt Q5S007); experiment: LRRK2 Enzymatic Assay; format: biochemical; details: LRRKtide substrate, [32P]-ATP
Procedure, shortened: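 GST-tagged catalytic domain (aa 970-2527) at 30 nM with 20 μM LRRKtide in HEPES pH 7.5/MgCl2 buffer, 1% DMSO; compounds (10 μM to 0.5 nM) preincubated 20 min, then [32P]-ATP added for 2 h at room temperature. P81 phosphocellulose capture; activity as % of vehicle, IC50 by curve fit.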

recombinant human LRRK2 (catalytic domain only [amino acids 970-2527], GST-tagged), sequence (Q5S007 970-2527): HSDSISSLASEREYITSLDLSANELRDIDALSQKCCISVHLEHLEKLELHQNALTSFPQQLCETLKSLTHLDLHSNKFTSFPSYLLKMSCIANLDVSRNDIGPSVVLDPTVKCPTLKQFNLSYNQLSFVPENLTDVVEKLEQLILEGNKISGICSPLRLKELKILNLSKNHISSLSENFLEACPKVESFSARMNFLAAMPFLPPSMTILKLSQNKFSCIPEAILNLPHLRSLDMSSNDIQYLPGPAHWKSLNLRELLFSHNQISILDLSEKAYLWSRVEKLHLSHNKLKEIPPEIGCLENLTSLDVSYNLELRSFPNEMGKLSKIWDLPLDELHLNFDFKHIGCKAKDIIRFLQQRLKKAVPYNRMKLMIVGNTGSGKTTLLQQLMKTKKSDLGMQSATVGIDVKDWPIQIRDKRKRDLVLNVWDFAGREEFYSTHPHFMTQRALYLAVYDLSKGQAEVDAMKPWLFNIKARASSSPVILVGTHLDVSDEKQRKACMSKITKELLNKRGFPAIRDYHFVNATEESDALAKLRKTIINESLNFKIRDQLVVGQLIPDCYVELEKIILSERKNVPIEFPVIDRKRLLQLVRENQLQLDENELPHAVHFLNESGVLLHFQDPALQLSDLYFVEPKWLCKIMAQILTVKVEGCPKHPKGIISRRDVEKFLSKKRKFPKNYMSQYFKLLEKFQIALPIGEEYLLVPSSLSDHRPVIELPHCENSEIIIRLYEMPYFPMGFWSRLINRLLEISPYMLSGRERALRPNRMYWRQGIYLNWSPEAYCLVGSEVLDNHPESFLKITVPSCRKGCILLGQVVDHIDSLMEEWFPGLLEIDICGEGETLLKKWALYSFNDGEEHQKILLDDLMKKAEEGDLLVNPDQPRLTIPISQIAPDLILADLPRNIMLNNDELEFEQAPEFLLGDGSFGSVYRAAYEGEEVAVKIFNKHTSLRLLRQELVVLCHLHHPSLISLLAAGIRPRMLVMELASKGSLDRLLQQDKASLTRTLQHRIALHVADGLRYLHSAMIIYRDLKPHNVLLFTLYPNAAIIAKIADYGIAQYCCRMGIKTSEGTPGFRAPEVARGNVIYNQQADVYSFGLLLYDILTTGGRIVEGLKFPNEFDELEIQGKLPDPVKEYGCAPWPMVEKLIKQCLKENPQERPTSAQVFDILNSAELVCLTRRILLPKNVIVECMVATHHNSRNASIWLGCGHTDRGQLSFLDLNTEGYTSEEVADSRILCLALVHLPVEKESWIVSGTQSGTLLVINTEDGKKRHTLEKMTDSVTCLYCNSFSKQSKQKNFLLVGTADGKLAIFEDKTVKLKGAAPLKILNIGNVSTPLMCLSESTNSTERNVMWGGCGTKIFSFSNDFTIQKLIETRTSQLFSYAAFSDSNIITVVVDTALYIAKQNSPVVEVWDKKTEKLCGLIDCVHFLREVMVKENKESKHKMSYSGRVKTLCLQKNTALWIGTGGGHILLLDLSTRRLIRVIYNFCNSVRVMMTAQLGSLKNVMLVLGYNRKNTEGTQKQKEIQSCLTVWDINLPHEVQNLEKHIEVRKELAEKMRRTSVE

Row | pIC50 | Compound
1 | 6.40 to 6.70 | O[C@H]1CC[C@H](COc2nc(Nc3cnn(C4COC4)c3)ncc2F)CC1 [Example 227, (1R,4R)-4-(((5-fluoro-2-((1-(oxetan-3-yl)-1H-pyrazol-4-yl)amino)pyrimidin-4-yl)oxy)methyl)cyclohexan-1-ol]
2 | 6.70 to 7.30 | COCCn1cc(Nc2ncc(F)c(OC[C@H]3CC[C@H](O)CC3)n2)cn1 [Example 226, (1R,4R)-4-(((5-fluoro-2-((1-(2-methoxyethyl)-1H-pyrazol-4-yl)amino)pyrimidin-4-yl)oxy)methyl)cyclohexan-1-ol]
3 | < 6.40 | CC(C)n1cc(Nc2ncc(F)c(OC[C@H]3CC[C@@H](O)CC3)n2)cn1 [Example 219, (1S,4S)-4-(((5-fluoro-2-((1-isopropyl-1H-pyrazol-4-yl)amino)pyrimidin-4-yl)oxy)methyl)cyclohexan-1-ol]
4 | 6.70 to 7.30 | Cc1nn(C(C)(C)C#N)cc1Nc1nccc(OCC2CCC(O)C2)n1 (stereo not shown) [Example 130, 2-(4-((4-((3-hydroxycyclopentyl)methoxy)pyrimidin-2-yl)amino)-3-methyl-1H-pyrazol-1-yl)-2-methylpropanenitrile]
5 | > 7.30 | C[C@@H]1CN(c2ccc(Nc3ncc(F)c(OCC4CCC(O)CC4)n3)cc2)C[C@H](C)O1 (stereo partly drawn) [Example 124, 4-(((2-((4-((2S,6R)-2,6-dimethylmorpholino)phenyl)amino)-5-fluoropyrimidin-4-yl)oxy)methyl)cyclohexan-1-ol]
6 | > 7.30 | Cc1nn(C(C)(C)C#N)cc1Nc1ncc(Cl)c(OC[C@H]2CC[C@H](NC(=O)C(F)F)CC2)n1 [Example 100, N-((1R,4R)-4-(((5-chloro-2-((1-(2-cyano-propan-2-yl)-3-methyl-1H-pyrazol-4-yl)amino)pyrimidin-4-yl)oxy)methyl)cyclohexyl)-2,2-difluoro-acetamide]
7 | 6.40 to 6.70 | COc1nn(C2CC2)cc1Nc1ncc(F)c(OC[C@H]2CC[C@H](O)CC2)n1 [Example 245, (1R,4R)-4-(((2-((1-cyclopropyl-3-methoxy-1H-pyrazol-4-yl)amino)-5-fluoropyrimidin-4-yl)oxy)methyl)cyclohexan-1-ol]
8 | 6.40 to 6.70 | c1cc(OCC2CCNCC2)nc(Nc2ccc(N3CCOCC3)cc2)n1 [Example 17, N-(4-morpholinophenyl)-4-(piperidin-4-ylmethoxy)pyrimidin-2-amine]
9 | 6.40 to 6.70 | CNC1(COc2nc(Nc3ccc(N4CCOCC4)cc3)ncc2Cl)CC1 [Example 54, 5-chloro-4-((1-(methylamino)cyclo-propyl)methoxy)-N-(4-morpholinophenyl)py-rimidin-2-amine]
10 | 6.70 to 7.30 | Cc1nn(C(F)F)cc1Nc1ncc(F)c(OC[C@H]2CC[C@H](O)CC2)n1 [Example 232, (1R,4R)-4-(((2-((1-(difluoromethyl)-3-methyl-1H-pyrazol-4-yl)amino)-5-fluoropyrimidin-4-yl)oxy)methyl)cyclohexan-1-ol]
11 | 6.40 to 6.70 | O[C@H]1CC[C@H](COc2nc(Nc3cn(C4CC4)nc3Cl)ncc2F)CC1 [Example 239, (1R,4R)-4-(((2-((3-chloro-1-cyclopropyl-1H-pyrazol-4-yl)amino)-5-fluoropyrimidin-4-yl)oxy)methyl)cyclohexan-1-ol]
12 | > 7.30 | CC(=O)N[C@H]1CC[C@H](COc2nc(Nc3cnn(CCF)c3)ncc2F)CC1 [Example 189, N-((1R,4R)-4-(((5-fluoro-2-((1-(2-fluoroethyl)-1H-pyrazol-4-yl)amino)pyrimidin-4-yl)oxy)methyl)cyclo-hexyl)acetamide]
13 | 6.70 to 7.30 | C[C@@H]1CN(c2ccc(Nc3ncc(F)c(OCC4CCC(F)(F)C4)n3)cc2)C[C@H](C)O1 (stereo partly drawn) [Example 271, 4-((3,3-difluorocyclopentyl)methoxy)-N-(4-((2S,6R)-2,6-dimethylmorpholino)phenyl)-5-fluoropyrimidin-2-amine]
14 | 6.70 to 7.30 | Cc1nn(C(C)(C)C#N)cc1Nc1ncc(F)c(OCC2CCC(OC(C)C)CC2)n1 (racemic) [Example 280, 2-(4-((5-fluoro-4-((4-isopropoxycyclohexyl)methoxy)pyrimidin-2-yl)amino)-3-methyl-1H-pyrazol-1-yl)-2-methylpropanenitrile]
15 | < 6.40 | Fc1cnc(Nc2ccc(N3CCOCC3)cc2)nc1OCC1CCC(OC(F)(F)F)CC1 (single isomer, unassigned) [Example 282, 5-fluoro-N-(4-morpholinophenyl)-4-((4-(trifluoromethoxy)cyclohexyl)methoxy)pyrimidin-2-amine]
16 | < 6.40 | Cc1nn(C(C)(C)C#N)cc1Nc1ncc(Cl)c(OCC2CNC2)n1 [Example 27, 2-(4-((4-(azetidin-3-ylmethoxy)-5-chloropyrimidin-2-yl)amino)-3-methyl-1H-pyrazol-1-yl)-2-methylpropanenitrile]
17 | 6.70 to 7.30 | Cc1nn(C2CC(C#N)C2)cc1Nc1ncc(Cl)c(OCC2CCOC(C)(C)C2)n1 (stereo not shown) [Example 150, 3-(4-((5-chloro-4-((2,2-dimethyltetrahydro-2H-pyran-4-yl)methoxy)pyrimidin-2-yl)amino)-3-methyl-1H-pyrazol-1-yl)cyclobutane-1-carbonitrile]

Row | pIC50 | Compound
18 | > 7.30 | Cc1c(Nc2ncc(Cl)c(OCC3(F)CCNCC3)n2)cnn1C1CC(C#N)C1 (stereo not shown) [Example 22, 3-(4-((5-chloro-4-((4-fluoropiperidin-4-yl)methoxy)pyrimidin-2-yl)amino)-5-methyl-1H-pyrazol-1-yl)cyclobutane-1-carbonitrile]
19 | > 7.30 | N#CC1CCC(COc2nc(Nc3ccc(N4CCOCC4)cc3)ncc2F)CC1 (racemic) [Example 272, 4-(((5-fluoro-2-((4-morpholinophenyl)amino)pyrimidin-4-yl)oxy)methyl)cyclohexane-1-carbonitrile]
20 | 6.70 to 7.30 | Cc1nn(C)cc1Nc1ncc(F)c(OC[C@H]2CC[C@H](O)CC2)n1 [Example 229, (1R,4R)-4-(((2-((1,3-dimethyl-1H-pyrazol-4-yl)amino)-5-fluoropyrimidin-4-yl)oxy)methyl)cyclohexan-1-ol]
21 | 6.70 to 7.30 | Fc1cnc(Nc2ccc(N3CCOCC3)cc2)nc1OCC1(F)CCNCC1 [Example 24, 5-fluoro-4-((4-fluoropiperidin-4-yl)methoxy)-N-(4-morpholinophenyl) pyrimidin-2-amine]
22 | < 6.40 | CC(=O)N[C@H]1C[C@H](COc2ccnc(Nc3ccc(N4CCOCC4)cc3)n2)C1 [Example 94, N-((1R,3R)-3-(((2-((4-morpholinophenyl)amino)pyrimidin-4-yl)oxy)methyl)cyclo-butyl)acetamide]
23 | 6.70 to 7.30 | COc1cc(C(=O)N2CCOCC2)c(F)cc1Nc1ncc(F)c(OC[C@H]2CC[C@H](NC(C)=O)CC2)n1 [Example 182, N-((1R,4R)-4-(((5-fluoro-2-((5-fluoro-2-methoxy-4-(morpholine-4-carbonyl)phenyl)amino)pyrimidin-4-yl)oxy)methyl)cyclo-hexyl)acetamide]
24 | > 7.30 | O[C@H]1CC[C@H](COc2nc(Nc3cnn(C4CCOCC4)c3Cl)ncc2F)CC1 [Example 242, (1R,4R)-4-(((2-((5-chloro-1-(tetrahydro-2H-pyran-4-yl)-1H-pyrazol-4-yl)amino)-5-fluoropyrimidin-4-yl)oxy)methyl)cyclohexan-1-ol]
25 | 6.70 to 7.30 | O[C@@H]1CC[C@H](COc2nc(Nc3ccc(N4CCOCC4)cc3)ncc2F)C[C@H]1F [Example 258, (1R,2R,4S)-2-fluoro-4-(((5-fluoro-2-((4-morpholinophenyl)amino)pyrimidin-4-yl)oxy)methyl)cyclohexan-1-ol]
26 | > 7.30 | CCn1cc(Nc2ncc(F)c(OC[C@H]3CC[C@H](NC(C)=O)CC3)n2)cn1 [Example 184, N-((1R,4R)-4-(((2-((1-ethyl-1H-pyrazol-4-yl)amino)-5-fluoropyrimidin-4-yl)oxy)methyl)cyclo-hexyl)acetamide]
27 | > 7.30 | CC(=O)NC1CCCC(COc2nc(Nc3ccc(N4CCOCC4)cc3)ncc2F)CC1 (stereo not shown) [Example 85, N-(4-(((5-fluoro-2-((4-morpholinophenyl)amino)pyrimidin-4-yl)oxy)methyl)cyclo-heptyl)acetamide]
28 | 6.40 to 6.70 | CC(=O)N1CCC(COc2nc(Nc3ccc(N4C[C@@H](C)O[C@@H](C)C4)cc3)ncc2F)C(F)C1 (single isomer, unassigned) [Example 174]
29 | > 7.30 | O=C(N[C@H]1CC[C@H](COc2nc(Nc3ccc(N4CCOCC4)cc3)ncc2F)CC1)C(F)(F)F [Example 99, 2,2,2-trifluoro-N-((1R,4R)-4-(((5-fluoro-2-((4-morpholino-phenyl)amino)pyrimidin-4-yl)oxy)methyl)cyclohexyl) acetamide]
30 | > 7.30 | Cc1nn(C(C)(C)C#N)cc1Nc1ncc(Cl)c(OCC2CCC(O)CC2)n1 (stereo not shown) [Example 121, 2-(4-((5-chloro-4-((4-hydroxycyclohexyl)methoxy)pyrimidin-2-yl)amino)-3-methyl-1H-pyrazol-1-yl)-2-methylpropanenitrile]
31 | > 7.30 | CC(C)n1cc(Nc2ncc(F)c(OCC34CCC(O)(CC3)CC4)n2)cn1 [Example 256, 4-(((5-fluoro-2-((1-isopropyl-1H-pyrazol-4-yl)amino)pyrimidin-4-yl)oxy)methyl)bicyclo[2.2.2]octan-1-ol]
32 | < 6.40 | CN1CCC(F)(COc2nc(Nc3ccc(N4CCOCC4)cc3)ncc2F)CC1 [Example 64, 5-fluoro-4-((4-fluoro-1-methylpiperidin-4-yl)methoxy)-N-(4-morpholinophenyl)py-rimidin-2-amine]
33 | 6.40 to 6.70 | CC(=O)N[C@H]1C[C@H](COc2nc(Nc3ccc(N4CCOCC4)cc3)ncc2F)C1 [Example 92, N-((1R,3R)-3-(((5-fluoro-2-((4-morpholinophenyl)amino)pyrimidin-4-yl)oxy)methyl)cyclo-butyl)acetamide]

Row | Compound | pIC50
34 | FC(F)CN[C@H]1CC[C@H](COc2nc(Nc3cccc(N4CCOCC4)c3)ncc2Cl)CC1 [Example 107, 5-chloro-4-(((1R,4R)-4-((2,2-difluoro-ethyl)amino)cyclohexyl)methoxy)-N-(3-morpholino-phenyl) pyrimidin-2-amine] | > 7.30
